Holding throughout (experiment): relative viability (nuclei count vs DMSO), 5 days (fraction); higher = more cells survive
Compound in experiment [1]: O=c1[nH]cc(F)c(=O)[nH]1 [5-Fluorouracil] + CS(=O)(=O)CCNCc1ccc(-c2ccc3ncnc(Nc4ccc(OCc5cccc(F)c5)c(Cl)c4)c3c2)o1 [Lapatinib] (partner 2 µM)
Put shortly:
(§1)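 Medians of duplicate plates are given as relative viability. That measure is the nuclei count in treated wells divided by the count in vehicle wells. Counts were taken on 4× images of lung cancer cell lines in 1536-well plates, 5 days after pin-tool dosing the day after seeding with one drug alone or a fixed anchor-drug dose plus five library-drug doses (not always all listed) in √10 steps.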

Compound in experiment [2]: CN[C@@H]1C[C@H]2O[C@@](C)([C@@H]1OC)n1c3ccccc3c3c4c(c5c6ccccc6n2c5c31)C(=O)NC4 [Staurosporine] + C[C@@H](Oc1cc(-c2cnn(C3CCNCC3)c2)cnc1N)c1c(Cl)ccc(F)c1Cl [Crizotinib] (partner 1 µM)
Put shortly: as §1

Compound in the experiment “Sulindac + Lapatinib”: CC1=C(CC(=O)O)c2cc(F)ccc2/C1=C\c1ccc([S+](C)[O-])cc1 [Sulindac] + CS(=O)(=O)CCNCc1ccc(-c2ccc3ncnc(Nc4ccc(OCc5cccc(F)c5)c(Cl)c4)c3c2)o1 [Lapatinib] (partner 2 µM)
An outline of the steps:
as §1

Compound in experiment [3]: CN[C@@H]1C[C@H]2O[C@@](C)([C@@H]1OC)n1c3ccccc3c3c4c(c5c6ccccc6n2c5c31)C(=O)NC4 [Staurosporine] + O=C(CCCCCCC(=O)Nc1ccccc1)NO [Vorinostat] (partner 1 µM)
Put shortly: as §1

As for UMC-11, the relative viability in experiment [1] (first compound 0.02 µM) turned out to be 0.905; in experiment [1] (first compound 0.2 µM), 0.746; in experiment [1] (first compound 0.6325 µM), 0.434; in experiment [1] (first compound 2 µM) it was 0.443; in experiment [2] (first compound 0.005 µM) it was 0.544; in experiment [2] (first compound 0.01581 µM), 0.406. Also, the relative viability stood at 0.207 in experiment [2] (first compound 0.05 µM); 0.0703 in experiment [2] (first compound 0.1581 µM); 0.0402 in experiment [2] (first compound 0.5 µM); 1.16 with Sulindac + Lapatinib (first compound 0.08 µM); 1.12 with Sulindac + Lapatinib (first compound 0.253 µM); 0.758 with Sulindac + Lapatinib (first compound 0.8 µM). Besides, the relative viability with Sulindac + Lapatinib (first compound 2.53 µM) was 0.946; with Sulindac + Lapatinib (first compound 8 µM), 1.15; in experiment [3] (first compound 0.005 µM) it was 0.343; in experiment [3] (first compound 0.01581 µM), 0.136; in experiment [3] (first compound 0.05 µM), 0.0975; in experiment [3] (first compound 0.1581 µM), 0.0825. Besides, the relative viability in experiment [3] (first compound 0.5 µM) was determined as 0.066.

These data come from the supplement of paper PMC10307832.
